Data from patent US20160144021A1, “Vaccine Composition And Method Of Use” (MEDIMMUNE, LLC, priority 2013, published 2016).

What was measured:
RSV A2 [1] = experiment: Lung viral titers by plaque assay after RSV challenge, naive BALB/c mice; format: in vivo
[2] = tested on: RSV-F derived MHC II (I-Ed)-binding peptides; experiment: F-specific CD4 T-cell cytokine profiling of restimulated splenocytes, naive BALB/c mice; format: in vivo; conditions: splenocytes 4 days post challenge, 72 h restimulation
RSV sF protein = experiment: IFNγ and IL-4 ELISPOT of splenocytes, naive cotton rats; format: in vivo; conditions: splenocytes 4 days post challenge, RSV sF restimulation
Experimental: Paired antibodies for cotton rat IFNγ (#DY565) or IL-4 (#DY584) obtained in R&D DuoSet ELISA Systems were used in ELISPOT assay formats for the evaluation of cotton rat cellular immune responses. 96 well PVDF plates (Millipore, Billerica, Mass.) were coated overnight with kit provided capture antibody (anti-IFNγ or anti-IL-4, respectively) at 10 μg/mL in PBS. Plates were blocked with cRPMI-5 for 2 hours. Cells were then incubated on blocked coated plates in cRPMI-5 for 36-48 hours in triplicate with media, RSV sF ([…]), or ConA (5 μg/mL) as a positive control. Following incubation cells were washed away, plates were incubated with included biotinylated detection antibody (1 μg/mL in PBS+1% BSA) followed by streptavidin-HRP (Mabtech, Cincinnati, Ohio) and 3-amino-9-ethylcarbazole (AEC, Vector Labs, Burlingame, Calif.). Plates were read and analyzed using a CTL ImmunoSpot reader and software (Cellular Technology Ltd).

RSV sF [3] = experiment: Serum F-specific IgA ELISA, 1x RSV seropositive BALB/c mice; format: in vivo; conditions: Day 14; RSV sF at 10 μg, RSV sF+GLA-SE at any of the 3 doses
Experimental: Serology readouts were made at Days 0, 14, 28, 42, 56, and 73 for each group. Animals were lightly anesthetized with isoflurane and bled intraorbitally. Serum was separated and stored at −20° C. and thawed for testing. Total anti-F IgG were measured at each timepoint, with anti-F IgG1 and anti-F IgG2a ELISA endpoint dilution titers measured at Day 0 and Day 42. RSV neutralization titer was determined by a RSV A2-GFP microneutralization assay. The polyclonal nature of the anti-F IgG response was evaluated on Day 42 by competition ELISA with site-specific monoclonal antibodies to RSV-F. Anti-F IgA endpoint dilution titers were measured at Day 14 for each group.

[4] = tested on: F-derived CD8 peptide (KYKNAVTEL); experiment: CD8 IFNγ ELISPOT of splenocytes, 1x RSV seropositive BALB/c mice; format: in vivo
Experimental: Systemic cellular immune responses to vaccination were evaluated in representative animals at Day 10 post vaccination. Additional representative animals were recalled with a viral challenge at Day 69 and evaluated for long-term cellular immune responses at Day 73, 4 days post viral challenge. For each of the groups, 3-5 individual splenocyte samples were prepared. CD4 T-cell readouts were assessed by multiplexed cytokine analysis of supernatant levels of a panel of secreted cytokines (including IFNγ, IL-5, IL-10, IL-13, and IL-17) following a 72-hour restimulation period with RSV sF. CD8 T-cell readouts were assessed by 2 methods: ELISPOT counts of IFNγ-secreting cells following a 36-48 hour restimulation period with an F-derived CD8 peptide ([…] aa 85-93) (SEQ ID NO: 12) and intracellular staining and quantification of the percentage of F-specific polyfunctional (IFNγ+ TNFα+IL-2+) CD8 T cells following a 5-hour restimulation period with the F-derived CD8 peptide.

[5] = tested on: IFNγ, IL-5, IL-13, eotaxin, RANTES; experiment: Lung cytokines 4 days post challenge, highly seropositive BALB/c mice
Experimental: One hundred three female BALB/c mice (Charles River), ages 6-8 weeks old, were divided into 13 groups. Group 1 had 7 mice and groups 2 through 13 had 8 mice. Following anaesthetization groups 1 through 12 were dosed with 1×10^6 plaque forming units (PFU) in 100 μL of live RSV via an intranasal (IN) route on Day 0 and Day 35. Group 13 was not exposed to RSV. On Day 56, groups 1 through 11 were immunized with placebo (PBS) or vaccine article via an intramuscular (IM) route following anesthesia with isoflurane. The vaccine articles were formulated in a total of 100 μL with 50 μL given in each hind limb. Group 12 was anesthetized with isoflurane and immunized with 1×10^6 PFU in 100 μL of live RSV via an IN route. […] Sera were obtained from retro orbital blood collection at study days 0, 28, 56 70 and 84, separated from whole blood and stored at −20° C. until evaluated. Spleens from 4 animals in each group were harvested for T cell assays on Day 67, 11 days post immunization, or at day 88, 4 days post challenge. Lung cytokines quantified at 4 days after challenge in individual lung homogenates by luminex assay (Milipore).
Mouse cytokine/chemokine multiplex kits designed to include IFNgamma, IL-5, IL-13, IL-17 and eotaxin (Millipore, Billerica, Mass.) were used to evaluate lung homogenates. Lung homogenates were clarified by centrifugation prior to use. Assays were performed following manufacturer's instructions and plates were analyzed on a Luminex reader (Bio-Rad, Hercules, Calif.).

RSV sF [6] = experiment: Serum anti-F IgG and isotype ELISA, naive Sprague Dawley rats; format: in vivo; conditions: Day 42
Experimental: (§1) In a subsequent study, the immunogenicity and protection following a prime-boost regimen of RSV-SF was evaluated. 40 naive female Sprague Dawley rats were divided into designated vaccine cohorts of 5-6 animals per cohort. Briefly, test groups were given RSV sF (10 μg or 100 μg per animal) without adjuvant or RSV sF (10 μg or 100 μg per animal) with GLA-SE (2.5 μg in 2% SE). Negative control groups were dosed with placebo (PBS buffer) or adjuvant GLA-SE (2.5 μg/2%) without RSV sF. […] Groups 1-6 were inoculated IM with 500 μL of designated vaccine article on Day 0 and Day 22, while Group 7 was inoculated IN with 200 μL of RSV A2 virus on day 0 only. […] Rats were euthanized at 4 days post challenge on Day 46, the day of peak viral replication determined from Study 1. Lungs (excluding 1 lobe which was formalin-fixed) and noses were homogenized and quantified for viral titers.
Serological responses to vaccination were evaluated at 6 hours post immunization, D22, and D42 for all animals and at Day 14 for a subset of 3 animals per group. […] Serum obtained 6 hours post-immunization was evaluated for cytokine titers by multiplexed ELISA. Serum from Days 14, 22, and 42 were measured for total anti-F IgG ELISA endpoint dilution titers. Day 42 serum was evaluated for the specific contribution of IgG1, IgG2a, and IgG2b anti-F responses by ELISA endpoint dilution titers. […]

RSV A2 [7] = experiment: Lung and nose RSV titers after challenge, vaccinated Sprague Dawley rats; format: in vivo; conditions: 10 or 100 μg RSV sF, 4 days post challenge
Experimental: as §1

Substance: RSV sF: RSV soluble F protein, amino acids 1-524 of the RSV A2 F sequence lacking the transmembrane domain, given without adjuvant
- animals having detectable lung viral titers (RSV A2 [1]; 4 days post challenge): 4/7
- lung protection (full = 100-fold reduction vs PBS) (RSV A2 [1]; 4 days post challenge): partial lung protection
- detectable lung viral titers (individual animals) (RSV A2 [1]; naive BALB/c, IM days 0 and 14, 0.3 μg RSV sF, challenge day 28, 4 days post challenge): 2.3-3.0 log10 pfu/gram
- F-specific CD4 T-cell cytokine production profile [2]: Th2-type response characterized by IL-5 and IL-13 cytokines
- F-specific IFNγ ELISPOT response (mean) (RSV sF protein): 58 SFU/million cells
- serum F-specific IgA titers versus seropositive animals vaccinated with PBS (RSV sF [3]): significantly higher serum F-specific IgA titers
- F-specific CD8 IFNγ ELISPOT response ([4]; Day 10 post vaccination, highest dose (10 μg) RSV sF): 224 SFU/million
- F-specific CD8 IFNγ ELISPOT response (mean) ([4]; Day 10 post vaccination, range across RSV sF doses 0.4-10 μg): 72-224 SFU/million
- recall F-specific CD8 IFNγ ELISPOT response (means) ([4]; Day 73, 4 days post RSV challenge, range across RSV sF doses): 62-243 SFU/million
- lung RANTES following RSVA2 exposure ([5]; 4 days post challenge): increased with increasing amounts of RSV sF
- lung eotaxin and IL-13 upon RSV challenge ([5]; 4 days post challenge): did not induce eotaxin or IL-13 levels higher than any of the other groups
- lung IL-5 in response to RSV challenge ([5]; day 88, 4 days post challenge): did not set up mice to induce IL-5
- F-specific isotype balance (RSV sF [6]): higher IgG1 titers than IgG2b titers
- animals per group with titers below the limit of detection (RSV A2 [7]): 1-2
